Laboratory results taken from the NIST ThermoML archive (doi:10.1021/je200816z).
Numbers after ± are expanded uncertainties.

Details: 351.21 K; Liquid

CCO [ethanol]
vapor or sublimation pressure: 100 ± 0.9 kPa
